Source: ChEMBL document CHEMBL3509421, “FDA drug approval package for diclofenac acid (NDA 22-202 CP, Ref ID: 3374276)”

Experiments:
[1] = Mean AUC (0-t) of diclofenac following single oral dosing of 25 mg diclofenac potassium softgel capsule in healthy human; assay type: ADME, organism-based; design: dietary status Fed, dose 25 mg, dosed compound id 2.46815e+06, dosed compound name Diclofenac potassium, gender Mixed, regimen Single, route oral, study doses 25/50 mg; settings: both, plasma
[2] = Mean Cmax value of diclofenac following single oral dosing of 50 mg Cataflam tablet in healthy human; assay type: ADME, organism-based; design: dietary status Fasting, dose 50 mg, dosed compound id 2.46815e+06, dosed compound name Diclofenac potassium, gender Mixed, regimen Single, route oral; settings: both, plasma
[3] = Maximum tmax of diclofenac following single oral dosing of 50 mg Cataflam tablet in healthy human; assay type: ADME, organism-based, Plasma; design: dietary status Fed, dose 50 mg, dosed compound id 2.46815e+06, dosed compound name Diclofenac potassium, gender Mixed, regimen Single, route oral; settings: in vivo
[4] = Maximum tmax of diclofenac following single oral dosing of 35 mg Zorvolex capsule in healthy human; assay type: ADME, organism-based, Plasma; design: dietary status Fed, dose 35 mg, dosed compound id 2.46815e+06, dosed compound name Diclofenac, gender Mixed, regimen Single, route oral; settings: in vivo
[5] = Minimum tmax of diclofenac following single oral dosing of 50 mg Cataflam tablet in healthy human; assay type: ADME, organism-based, Plasma; design: dietary status Fed, dose 50 mg, dosed compound id 2.46815e+06, dosed compound name Diclofenac potassium, gender Mixed, regimen Single, route oral; settings: in vivo
[6] = Mean Tmax of diclofenac following single oral dosing of 50 mg diclofenac potassium softgel capsule in healthy human; assay type: ADME, organism-based; design: dietary status Fed, dose 50 mg, dosed compound id 2.46815e+06, dosed compound name Diclofenac potassium, gender Mixed, regimen Single, route oral, study doses 25/50 mg; settings: both, plasma
[7] = Mean maximum Tmax value of diclofenac potassium following oral dosing of Cataflam 50 mf tablet in healthy human; assay type: ADME, organism-based; design: dietary status Fed, dose 50 mg, dosed compound id 2.46815e+06, dosed compound name Diclofenac potassium, gender Mixed, regimen Single, route oral, study doses 50 mg; settings: both, plasma, 50 mg, read-out: Maximum Tmax
[8] = (§1) Mean Cmax of diclofenac following single oral dosing of 25 mg diclofenac potassium softgel capsule in healthy human; assay type: ADME, organism-based; design: dietary status Fasting, dose 25 mg, dosed compound id 2.46815e+06, dosed compound name Diclofenac potassium, gender Mixed, regimen Single, route oral, study doses 25/50 mg; settings: both, plasma
[9] = Mean median Tmax value of diclofenac potassium following oral dosing of PRO-513 50 mg sachet in healthy human; assay type: ADME, organism-based; design: dietary status Fasting, dose 50 mg, dosed compound id 2.46815e+06, dosed compound name Diclofenac potassium, gender Mixed, regimen Single, route oral, study doses 50 mg; settings: both, plasma, read-out: Median Tmax
[10] = Mean Cmax value of diclofenac following single oral dosing of 35 mg Zorvolex capsule in healthy human; assay type: ADME, organism-based; design: dietary status Fasting, dose 35 mg, dosed compound id 2.46815e+06, dosed compound name Diclofenac, gender Mixed, regimen Single, route oral; settings: both, plasma
[11] = (§2) Mean AUC(0-t) of diclofenac potassium following oral dosing of Cataflam 50 mf tablet in healthy human; assay type: ADME, organism-based; design: dietary status Fasting, dose 50 mg, dosed compound id 2.46815e+06, dosed compound name Diclofenac potassium, gender Mixed, regimen Single, route oral, study doses 50 mg; settings: both, plasma, 50 mg
[12] = Mean Cmax of diclofenac potassium following oral dosing of Cataflam 50 mf tablet in healthy human; assay type: ADME, organism-based; design: dietary status Fed, dose 50 mg, dosed compound id 2.46815e+06, dosed compound name Diclofenac potassium, gender Mixed, regimen Single, route oral, study doses 50 mg; settings: both, plasma, 50 mg
clinical [13] = settings: both, human, plasma, po, 50 mg
[14] = Mean AUC(0-infinity) of diclofenac following single oral dosing of 50 mg Cataflam in healthy human; assay type: ADME, organism-based; design: time infinity, dietary status Fasting, dose 50 mg, dosed compound id 2.46815e+06, dosed compound name Diclofenac potassium, gender Mixed, regimen Single, route oral, study doses 50 mg; settings: both, plasma, read-out: AUC (0-infinity)
[15] = Mean AUC(0-t) of diclofenac following single oral dosing of 50 mg diclofenac potassium soft gelatin capsule in healthy human; assay type: ADME, organism-based; design: dietary status Fasting, dose 50 mg, dosed compound id 2.46815e+06, dosed compound name Diclofenac potassium, gender Mixed, regimen Single, route oral, study doses 25/50 mg; settings: both, plasma
[16] = Geometric mean for AUC (0-infinity) of diclofenac following single oral dosing of 35 mg Zorvolex capsule in healthy human; assay type: ADME, organism-based; design: time infinity, dietary status Fed, dose 35 mg, dosed compound id 2.46815e+06, dosed compound name Diclofenac, gender Mixed, regimen Single, route oral; settings: both, plasma, read-out: AUC (0-infinity)
[17] = Geometric mean for Cmax of diclofenac following single oral dosing of 50 mg Cataflam tablet in healthy human; assay type: ADME, organism-based; design: dietary status Fasting, dose 50 mg, dosed compound id 2.46815e+06, dosed compound name Diclofenac potassium, gender Mixed, regimen Single, route oral; settings: both, plasma
[18] = Mean Cmax of diclofenac following single oral dosing of 25 mg diclofenac potassium soft gelatin capsule in healthy human; assay type: ADME, organism-based; design: dietary status Fasting, dose 25 mg, dosed compound id 2.46815e+06, dosed compound name Diclofenac potassium, gender Mixed, regimen Single, route oral, study doses 25/50 mg; settings: both, plasma
[19] = Geometric mean for AUC (0-t) of diclofenac following single oral dosing of 50 mg Cataflam tablet in healthy human; assay type: ADME, organism-based; design: dietary status Fed, dose 50 mg, dosed compound id 2.46815e+06, dosed compound name Diclofenac potassium, gender Mixed, regimen Single, route oral; settings: both, plasma
[20] = as §2; assay type: ADME, organism-based; design: dietary status Fed, dose 50 mg, dosed compound id 2.46815e+06, dosed compound name Diclofenac potassium, gender Mixed, regimen Single, route oral, study doses 50 mg; settings: both, plasma, 50 mg
[21] = Mean apparent terminal elimination rate constant value of diclofenac following single oral dosing of 35 mg Zorvolex capsule in healthy human; assay type: ADME, organism-based, Plasma; design: dietary status Fasting, dose 35 mg, dosed compound id 2.46815e+06, dosed compound name Diclofenac, gender Mixed, regimen Single, route oral; settings: in vivo
[22] = (§3) Mean AUC (0-t) value of diclofenac following single oral dosing of 50 mg Cataflam tablet in healthy human; assay type: ADME, organism-based; design: dietary status Fed, dose 50 mg, dosed compound id 2.46815e+06, dosed compound name Diclofenac potassium, gender Mixed, regimen Single, route oral; settings: both, plasma
clinical [23] = settings: both, human, plasma, po, 18 mg
[24] = Geometric mean for Cmax of diclofenac following single oral dosing of 35 mg Zorvolex capsule in healthy human; assay type: ADME, organism-based; design: dietary status Fed, dose 35 mg, dosed compound id 2.46815e+06, dosed compound name Diclofenac, gender Mixed, regimen Single, route oral; settings: both, plasma
[25] = Median tmax of diclofenac following single oral dosing of 35 mg Zorvolex capsule in healthy human; assay type: ADME, organism-based; design: dietary status Fed, dose 35 mg, dosed compound id 2.46815e+06, dosed compound name Diclofenac, gender Mixed, regimen Single, route oral; settings: both, plasma, read-out: Median Tmax
[26] = as §1; assay type: ADME, organism-based; design: dietary status Fed, dose 25 mg, dosed compound id 2.46815e+06, dosed compound name Diclofenac potassium, gender Mixed, regimen Single, route oral, study doses 25/50 mg; settings: both, plasma
[27] = Mean AUC(0-infinity) of diclofenac potassium following oral dosing of PRO-513 50 mg sachet in healthy human; assay type: ADME, organism-based; design: time infinity, dietary status Fed, dose 50 mg, dosed compound id 2.46815e+06, dosed compound name Diclofenac potassium, gender Mixed, regimen Single, route oral, study doses 50 mg; settings: both, plasma, read-out: AUC(0-infinity)
[28] = as §3; assay type: ADME, organism-based; design: dietary status Fasting, dose 50 mg, dosed compound id 2.46815e+06, dosed compound name Diclofenac potassium, gender Mixed, regimen Single, route oral; settings: both, plasma
clinical [29] = settings: both, human, plasma, po, 25 mg
Description: Mean terminal elimination half-life of diclofenac following single oral dosing of 25 mg diclofenac potassium softgel capsule in healthy human

[30] = Geometric mean for apparent terminal elimination rate constant of diclofenac following single oral dosing of 50 mg Cataflam tablet in healthy human; assay type: ADME, organism-based, Plasma; design: dietary status Fasting, dose 50 mg, dosed compound id 2.46815e+06, dosed compound name Diclofenac potassium, gender Mixed, regimen Single, route oral; settings: in vivo
[31] = Mean minimum Tmax value of diclofenac potassium following oral dosing of Cataflam 50 mf tablet in healthy human; assay type: ADME, organism-based; design: dietary status Fasting, dose 50 mg, dosed compound id 2.46815e+06, dosed compound name Diclofenac potassium, gender Mixed, regimen Single, route oral, study doses 50 mg; settings: both, plasma, 50 mg, read-out: Minimum Tmax

Which AUC(0-t) [1] does the source give for `O=C(O)Cc1ccccc1Nc1c(Cl)cccc1Cl` [DICLOFENAC] here?
Its AUC(0-t) is 680 ng·h/mL.

And the Cmax [2]?
Its Cmax is 1190 ng/mL.

And the “Maximum Tmax” value [3]?
The value was 4.53 h.

And the “Maximum Tmax” value [4]?
The value was 10 h.

And the “Minimum Tmax” value [5]?
Its value is 0.5 h.

And the Tmax [6]?
The Tmax was 1.28 h.

And the Tmax [7]?
The Tmax was 8 h.

And the Cmax [8]?
Its Cmax is 1160 ng/mL.

And the Tmax [9]?
Its Tmax is 0.25 h.

And the Cmax [10]?
Its Cmax is 869 ng/mL.

And the AUC(0-t) [11]?
The AUC(0-t) was 1080 ng·h/mL.

And the Cmax [12]?
Its Cmax is 835 ng/mL.

What about the half-life (clinical [13]) of the same compound?
Its half-life is 2.27 h.

And the AUC(0-inf) [14]?
Its AUC(0-inf) is 1140 ng·h/mL.

And the AUC(0-t) [15]?
The AUC(0-t) was 1200 ng·h/mL.

And the AUC(0-inf) [16]?
The AUC(0-inf) was 852 ng·h/mL.

What about the Cmax [17] of the same compound?
Its Cmax is 1090 ng/mL.

What about the Cmax [18] of the same compound?
Its Cmax is 1120 ng/mL.

What about the AUC(0-t) [19] of the same compound?
Its AUC(0-t) is 1150 ng·h/mL.

What about the AUC(0-t) [20] of the same compound?
Its AUC(0-t) is 1060 ng·h/mL.

And the lambda-z [21]?
The lambda-z was 0.349 h⁻¹.

What about the AUC(0-t) [22] of the same compound?
The AUC(0-t) was 1180 ng·h/mL.

What about the half-life (clinical [23]) of the same compound?
Its half-life is 1.87 h.

And the Cmax [24]?
Its Cmax is 321 ng/mL.

What about the Tmax [25] of the same compound?
The Tmax was 3.32 h.

What about the Cmax [26] of the same compound?
The Cmax was 686 ng/mL.

What about the AUC(0-inf) [27] of the same compound?
Its AUC(0-inf) is 1080 ng·h/mL.

What about the AUC(0-t) [28] of the same compound?
Its AUC(0-t) is 1320 ng·h/mL.

What about the half-life (clinical [29]) of the same compound?
Its half-life is 1.04 h.

And the lambda-z [30]?
The lambda-z was 0.318 h⁻¹.

What about the Tmax [31] of the same compound?
Its Tmax is 0.25 h.
